# In patent US8802597B2, “Herbicidal pyrimidines” (E I du Pont de Nemours and Company, priority 2003, dated 2014):
# Where two headings read alike, the source gives them in different places.
# Legend:
# Type in all cases: in vivo
# [1] = tested on: Surinam grass (Brachiaria decumbens); assay: Test B pre/postemergence; conditions: Urochloa decumbens; for pest or weed control at 125 g/ha: 125 g ai/ha; for pest or weed control at 500 g/ha: 500 g ai/ha
# In short: (§1)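 Greenhouse whole-plant test; surfactant-containing non-phytotoxic solvent formulation; pre- and postemergence applications made simultaneously; post plants 2–18 cm, 1- to 4-leaf; visual scoring at 13–15 days on 0–100 scale relative to controls.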
# [2] = tested on: barnyardgrass (Echinochloa crus-galli); assay: Test B pre/postemergence; conditions: for pest or weed control at 500 g/ha: 500 g ai/ha
# In short: as §1
# [3] = tested on: cocklebur (Xanthium strumarium); assay: Test B pre/postemergence; conditions: Xanthium strumarium; for pest or weed control at 125 g/ha: 125 g ai/ha; for pest or weed control at 500 g/ha: 500 g ai/ha
# In short: as §1
# corn (Zea mays) = assay: Test B pre/postemergence
# In short: as §1
# [4] = tested on: crabgrass (Digitaria sanguinalis); assay: Test B pre/postemergence; conditions: for pest or weed control at 500 g/ha: 500 g ai/ha
# In short: as §1
# [5] = tested on: giant foxtail (Setaria faberii); assay: Test B pre/postemergence; conditions: for pest or weed control at 500 g/ha: Setaria faberi, 500 g ai/ha
# In short: as §1
# [6] = tested on: lambsquarters (Chenopodium album); assay: Test B pre/postemergence; conditions: Chenopodium album; for pest or weed control at 125 g/ha: 125 g ai/ha; for pest or weed control at 500 g/ha: 500 g ai/ha
# In short: as §1
# [7] = tested on: morningglory (Ipomoea coccinea); assay: Test B pre/postemergence; conditions: for pest or weed control at 500 g/ha: 500 g ai/ha
# In short: as §1
# [8] = tested on: pigweed (Amaranthus retroflexus); assay: Test B pre/postemergence; conditions: Amaranthus retroflexus; for pest or weed control at 125 g/ha: 125 g ai/ha; for pest or weed control at 500 g/ha: 500 g ai/ha
# In short: as §1
# [9] = tested on: velvetleaf (Abutilon theophrasti); assay: Test B pre/postemergence; conditions: Abutilon theophrasti; for pest or weed control at 125 g/ha: 125 g ai/ha; for pest or weed control at 500 g/ha: 500 g ai/ha
# In short: as §1
# [10] = tested on: wheat (Triticum aestivum); assay: Test B pre/postemergence; conditions: for plant injury at 500 g/ha: 500 g ai/ha
# In short: as §1
# [11] = tested on: blackgrass (Alopecurus myosuroides); assay: Test B postemergence
# In short: as §1
# wild oat (Avena fatua) = assay: Test B postemergence
# In short: as §1
# [12] = tested on: barnyardgrass (Echinochloa crus-galli); assay: Test B flooded paddy test; conditions: Echinochloa crus-galli, Flood, 1000 g ai/ha; scale 0 (no effect) to 100 (complete control); read-out: Plant response rating, Barnyardgrass
# In short: (§2)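 Plants were grown to the 2-leaf stage before treatment, then kept in a greenhouse for 13 to 15 days. Injury was rated visually against untreated controls on a 0 to 100 scale, where 0 is no effect and 100 is complete control.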
# [13] = tested on: duck salad (Heteranthera limosa); assay: Test B flooded paddy test; conditions: Heteranthera limosa, Flood, 1000 g ai/ha; scale 0 to 100; read-out: Plant response rating, Ducksalad
# In short: as §2
# rice (Oryza sativa) = assay: Test B flooded paddy test; conditions: Oryza sativa, Flood, 1000 g ai/ha; scale 0 to 100; read-out: Plant response rating, Rice
# In short: as §2
# [14] = tested on: umbrella sedge (Cyperus difformis); assay: Test B flooded paddy test; conditions: Cyperus difformis, Flood, 1000 g ai/ha; scale 0 to 100; read-out: Plant response rating, Sedge, Umbrella
# In short: as §2
# [15] = Preemergence, 125 g ai/ha, scale 0 to 100 (0 no effect, 100 complete control)
# [16] = Postemergence, 125 g ai/ha, scale 0 to 100 (0 no effect, 100 complete control)
# [17] = 125 g ai/ha, scale 0 to 100 (0 no effect, 100 complete control)
structure (smiles),measurement,setting,value
Nc1nc(C2CC2)nc(C(=O)O)c1Br [Compound 8],pest or weed control at 125 g/ha,"[1]; post-emergence, Postemergence, scale 0 to 100 (0 no effect, 100 complete control), read-out: Surinam Grass plant response rating",80%
same,pest or weed control at 500 g/ha,"[1]; post-emergence, Postemergence, scale 0 to 100, read-out: Plant response rating, Surinam Grass",90%
same,pest or weed control at 125 g/ha,"[1]; pre-emergence, Preemergence, scale 0 to 100 (0 no effect, 100 complete control), read-out: Plant response rating, Surinam Grass",60%
same,pest or weed control at 500 g/ha,"[1]; pre-emergence, Preemergence, scale 0 to 100 (0 no effect, 100 complete control), read-out: Surinam Grass plant response rating",90%
same,pest or weed control at 125 g/ha,"[2]; Echinochloa crus-galli, post-emergence, Postemergence, 125 g ai/ha, scale 0 to 100 (0 no effect, 100 complete control), read-out: Barnyardgrass plant response rating",90%
same,pest or weed control at 500 g/ha,"[2]; Echinochloa crus-galli, post-emergence, Postemergence, scale 0 to 100, read-out: Plant response rating, Barnyardgrass",90%
same,pest or weed control at 500 g/ha,"[2]; Echinochloa crus-galli, pre-emergence, Preemergence, scale 0 to 100 (0 no effect, 100 complete control), read-out: Barnyardgrass plant response rating",90%
same,"Plant response rating, Barnyardgrass",[2]; [15],70
same,pest or weed control at 125 g/ha,"[3]; post-emergence, Postemergence, scale 0 to 100 (0 no effect, 100 complete control), read-out: Cocklebur plant response rating",100%
same,pest or weed control at 500 g/ha,"[3]; post-emergence, Postemergence, scale 0 to 100, read-out: Plant response rating, Cocklebur",100%
same,pest or weed control at 125 g/ha,"[3]; pre-emergence, Preemergence, scale 0 to 100 (0 no effect, 100 complete control), read-out: Plant response rating, Cocklebur",90%
same,pest or weed control at 500 g/ha,"[3]; pre-emergence, Preemergence, scale 0 to 100 (0 no effect, 100 complete control), read-out: Cocklebur plant response rating",100%
same,Corn plant response rating,corn (Zea mays); [16],70
same,"Plant response rating, Corn",corn (Zea mays); [15],90
same,"Corn plant response rating (crop injury, 0 = no effect, 100 = complete kill) at 500 g/ha","corn (Zea mays); Zea mays, post-emergence, Postemergence, 500 g ai/ha, scale 0 to 100",90%
same,plant injury at 500 g/ha,"corn (Zea mays); Zea mays, pre-emergence, Preemergence, 500 g ai/ha, scale 0 to 100 (0 no effect, 100 complete control), read-out: Corn plant response rating",90%
same,pest or weed control at 500 g/ha,"[4]; Digitaria sanguinalis, post-emergence, Postemergence, scale 0 to 100, read-out: Plant response rating, Crabgrass",90%
same,pest or weed control at 125 g/ha,"[4]; Digitaria sanguinalis, pre-emergence, Preemergence, 125 g ai/ha, scale 0 to 100 (0 no effect, 100 complete control), read-out: Plant response rating, Crabgrass",80%
same,pest or weed control at 500 g/ha,"[4]; Digitaria sanguinalis, pre-emergence, Preemergence, scale 0 to 100 (0 no effect, 100 complete control), read-out: Crabgrass plant response rating",90%
same,Crabgrass plant response rating,[4]; [16],80
same,"Foxtail, Giant plant response rating",[5]; [16],80
same,"Plant response rating, Foxtail, Giant",[5]; [15],50
same,pest or weed control at 500 g/ha,"[5]; post-emergence, Postemergence, scale 0 to 100, read-out: Plant response rating, Foxtail, Giant",90%
same,pest or weed control at 500 g/ha,"[5]; pre-emergence, Preemergence, scale 0 to 100 (0 no effect, 100 complete control), read-out: Foxtail, Giant plant response rating",90%
same,pest or weed control at 125 g/ha,"[6]; post-emergence, Postemergence, scale 0 to 100 (0 no effect, 100 complete control), read-out: Lambsquarters plant response rating",100%
same,pest or weed control at 500 g/ha,"[6]; post-emergence, Postemergence, scale 0 to 100, read-out: Plant response rating, Lambsquarters",100%
same,pest or weed control at 125 g/ha,"[6]; pre-emergence, Preemergence, scale 0 to 100 (0 no effect, 100 complete control), read-out: Plant response rating, Lambsquarters",90%
same,pest or weed control at 500 g/ha,"[6]; pre-emergence, Preemergence, scale 0 to 100 (0 no effect, 100 complete control), read-out: Lambsquarters plant response rating",100%
same,pest or weed control at 125 g/ha,"[7]; Ipomoea, post-emergence, Postemergence, 125 g ai/ha, scale 0 to 100 (0 no effect, 100 complete control), read-out: Morningglory plant response rating",100%
same,pest or weed control at 500 g/ha,"[7]; Ipomoea, post-emergence, Postemergence, scale 0 to 100, read-out: Plant response rating, Morningglory",100%
same,pest or weed control at 500 g/ha,"[7]; Ipomoea, pre-emergence, Preemergence, scale 0 to 100 (0 no effect, 100 complete control), read-out: Morningglory plant response rating",100%
same,"Plant response rating, Morningglory",[7]; [15],100
same,pest or weed control at 125 g/ha,"[8]; post-emergence, Postemergence, scale 0 to 100 (0 no effect, 100 complete control), read-out: Pigweed plant response rating",100%
same,pest or weed control at 500 g/ha,"[8]; post-emergence, Postemergence, scale 0 to 100, read-out: Plant response rating, Pigweed",100%
same,pest or weed control at 125 g/ha,"[8]; pre-emergence, Preemergence, scale 0 to 100 (0 no effect, 100 complete control), read-out: Plant response rating, Pigweed",100%
same,pest or weed control at 500 g/ha,"[8]; pre-emergence, Preemergence, scale 0 to 100 (0 no effect, 100 complete control), read-out: Pigweed plant response rating",100%
same,pest or weed control at 125 g/ha,"[9]; post-emergence, Postemergence, scale 0 to 100 (0 no effect, 100 complete control), read-out: Velvetleaf plant response rating",80%
same,pest or weed control at 500 g/ha,"[9]; post-emergence, Postemergence, scale 0 to 100, read-out: Plant response rating, Velvetleaf",100%
same,pest or weed control at 125 g/ha,"[9]; pre-emergence, Preemergence, scale 0 to 100 (0 no effect, 100 complete control), read-out: Plant response rating, Velvetleaf",80%
same,pest or weed control at 500 g/ha,"[9]; pre-emergence, Preemergence, scale 0 to 100 (0 no effect, 100 complete control), read-out: Velvetleaf plant response rating",100%
same,Wheat plant response rating,[10]; [16],0
same,plant injury at 500 g/ha,"[10]; Triticum aestivum, post-emergence, Postemergence, scale 0 to 100, read-out: Plant response rating, Wheat",0%
same,plant injury at 125 g/ha,"[10]; Triticum aestivum, pre-emergence, Preemergence, 125 g ai/ha, scale 0 to 100 (0 no effect, 100 complete control), read-out: Plant response rating, Wheat",60%
same,plant injury at 500 g/ha,"[10]; Triticum aestivum, pre-emergence, Preemergence, scale 0 to 100 (0 no effect, 100 complete control), read-out: Wheat plant response rating",80%
same,Blackgrass plant response rating,[11]; [17],0
same,pest or weed control at 500 g/ha,"[11]; Alopecurus myosuroides, post-emergence, 500 g ai/ha, scale 0 to 100, read-out: Plant response rating, Blackgrass",0%
same,"Oat, Wild plant response rating",wild oat (Avena fatua); [17],0
same,pest or weed control at 500 g/ha,"wild oat (Avena fatua); Avena fatua, post-emergence, 500 g ai/ha, scale 0 to 100, read-out: Plant response rating, Oat, Wild",0%
same,pest or weed control at 1000 g/ha,[12],70%
same,pest or weed control at 1000 g/ha,[13],90%
same,plant injury at 1000 g/ha,rice (Oryza sativa),60%
same,pest or weed control at 1000 g/ha,[14],40%
